System: 2nd order mesenteric resistance arteries of SHR
Experiment: Reactivity of isolated arteries: dilator effect during contraction induced by 40 mmol/L K+
Parameters: species or system Spontaneously Hypertensive Rats (SHR)
Protocol: Segments of 2nd order mesenteric artery side branches were isolated from 14 weeks old male Spontaneously Hypertensive Rats (SHR). Two stainless-steel wires (diameter 40 μm) were inserted in the lumen of the arterial segments, which were then mounted in organ chambers between an isometric force transducer and a displacement device (Danish Myotechnology by J. P. Trading, Denmark). The organ chambers were filled with Krebs-Ringer bicarbonate solution which was maintained at 37° C. and continuously aerated with 95% O2 and 5% CO2. Before the actual experiments started, arterial segments were stretched to their individual optimal lumen diameter for mechanical performance, i.e. the diameter at which maximal contractile responses to noradrenaline (10 μmol/L) were obtained. In each experiment four second order mesenteric resistance arterial segments from one animal were mounted in individual organ chambers and studied in parallel. At the start of the experiments, all four arterial preparations were incubated during 20 min with capsaicin (1 μmol/L) to persistently desensitize sensory-motor nerves and to obtain a stable and considerable contractile response to potassium (K^+, 40 mmol/L). During all the experiments superoxide dismutase (SOD, 5 U/ml) was present, to preserve stability of the metabolites. We tested the effects of the 35 different phenolic compounds using a Plackett-Burman screening design. The experiment consisted of 5 separate saturated 8 run Plackett-burman designs. […] In this way, the effects of different exposure times to the mixtures (7, 30 and 90 min) on K+-induced contraction, could be evaluated. […] Effects of increasing concentrations of the solvent and of the mixes (0.1 to 100 umol/L) during contractile responses to 40 mmol/L K+, were calculated as % change of the level of pre-contraction. […] Responses to acetylcholine and Na-nitroprusside were analysed in terms of sensitivity (pD2=−log (M) EC50) and maximal effect (Emax) by least square sigmoidal curve fitting of individual concentration-response curves (Graphpad Prism 1.00, San Diego, Calif., USA). […]

## O=c1c(O)c(-c2ccc(O)cc2)oc2cc(O)cc(O)c12 [kaempferol, 3,5,7-trihydroxy-2-(4-hydroxyphenyl)-4H-1-benzopyran-4-one]
Rattus norvegicus, isolated mesenteric resistance arteries of SHR, pre-contracted with 40 mmol/L K+, deduced by comparing mixtures (Plackett-Burman design), corrected for solvent, read-out: EC50 of dilation of the arteries
  EC50: 3000 nM
At a low concentration, isolated SHR mesenteric arteries, comparison of different mixtures
  influence on the dilation of the arteries: significant influence on the dilation of the arteries
Isolated mesenteric resistance arteries of SHR, pre-contracted with 40 mmol/L K+, range tested 0.1-100 umol/L
  concentration at which the maximum dilatation was obtained: 100 µM
